Source: the NIST ThermoML archive (doi:10.1021/je9007553)
Several values for one entry are separate records, joined by “and”; a condition that tells them apart may be missing. Equal values may be shown once.

Conditions: Crystal, Calculated from knudsen effusion weight loss

[I][Al]([I])[I] [aluminum iodide]
Conditions	vapor or sublimation pressure
359.5 K	7e-05 kPa
361 K	0.0001 kPa
364 K	0.00014 kPa
365 K	0.00019 kPa and 0.00014 kPa
366.5 K	0.00017 kPa
367.5 K	0.00019 kPa
368 K	0.00019 kPa and 0.00025 kPa
368.5 K	0.00025 kPa
369.5 K	0.00025 kPa
371.5 K	0.00027 kPa
372 K	0.0003 kPa and 0.00034 kPa
372.5 K	0.00034 kPa
374.5 K	0.00049 kPa and 0.00039 kPa and 0.00036 kPa
375.5 K	0.00044 kPa
376 K	0.00042 kPa and 0.00049 kPa
377 K	0.00059 kPa and 0.00049 kPa
378 K	0.00054 kPa
378.5 K	0.00059 kPa and 0.00063 kPa
380 K	0.00068 kPa and 0.00071 kPa
380.5 K	0.00083 kPa and 0.00078 kPa
381 K	0.00078 kPa
382 K	0.00083 kPa
383 K	0.00093 kPa
383.5 K	0.00087 kPa
385 K	0.00126 kPa and 0.00102 kPa
385.5 K	0.00112 kPa
387 K	0.00135 kPa
388 K	0.00135 kPa
389 K	0.00186 kPa
390 K	0.0017 kPa and 0.00182 kPa and 0.00174 kPa
391 K	0.0017 kPa and 0.00209 kPa
393 K	0.00245 kPa
393.5 K	0.00214 kPa and 0.00234 kPa
394 K	0.00257 kPa
395 K	0.00251 kPa and 0.00282 kPa
396.5 K	0.00295 kPa
397 K	0.00324 kPa
397.5 K	0.00363 kPa
398 K	0.00347 kPa and 0.00339 kPa
399 K	0.0038 kPa
399.5 K	0.00407 kPa and 0.00417 kPa
400 K	0.00417 kPa
401 K	0.00437 kPa
402 K	0.00537 kPa and 0.00501 kPa
403 K	0.00525 kPa
403.5 K	0.00562 kPa and 0.0055 kPa
404.5 K	0.00562 kPa
405 K	0.00603 kPa and 0.00661 kPa
406 K	0.00759 kPa
407 K	0.00759 kPa
408 K	0.00776 kPa and 0.00794 kPa
408.5 K	0.00871 kPa
409 K	0.00933 kPa
409.5 K	0.00832 kPa
411 K	0.01047 kPa and 0.01023 kPa
412 K	0.01175 kPa and 0.01096 kPa
413 K	0.01288 kPa and 0.01148 kPa
414.5 K	0.01413 kPa
415 K	0.01479 kPa and 0.01445 kPa
416 K	0.01549 kPa and 0.01585 kPa
417 K	0.0166 kPa
417.5 K	0.0182 kPa
419.5 K	0.02188 kPa

[Br][Al]([Br])[Br] [aluminum bromide]
Conditions	vapor or sublimation pressure
301 K	0.00013 kPa
303 K	0.00018 kPa
306 K	0.00024 kPa
307 K	0.00035 kPa and 0.00034 kPa
309 K	0.00043 kPa and 0.00035 kPa
310 K	0.00045 kPa
312 K	0.00049 kPa and 0.00056 kPa and 0.00046 kPa
312.5 K	0.00054 kPa
314 K	0.00062 kPa
314.5 K	0.00071 kPa
315 K	0.00072 kPa and 0.00068 kPa
315.5 K	0.00085 kPa
316 K	0.00071 kPa
316.5 K	0.00089 kPa
317 K	0.00095 kPa and 0.00083 kPa
317.5 K	0.00089 kPa
318 K	0.00089 kPa
318.5 K	0.00107 kPa and 0.00102 kPa and 0.00112 kPa
320 K	0.00107 kPa and 0.00123 kPa
320.5 K	0.00123 kPa
321 K	0.00135 kPa
321.5 K	0.00141 kPa
323 K	0.00166 kPa [middle of 4 runs]
324 K	0.0017 kPa and 0.00178 kPa
324.5 K	0.00191 kPa
325 K	0.00209 kPa
326 K	0.00204 kPa and 0.00214 kPa
327 K	0.0024 kPa and 0.00282 kPa
327.5 K	0.00234 kPa
328 K	0.00269 kPa and 0.00251 kPa
330 K	0.00363 kPa and 0.00324 kPa
330.5 K	0.00309 kPa
331 K	0.00389 kPa
332.5 K	0.00468 kPa
333 K	0.00457 kPa and 0.00398 kPa
333.5 K	0.00437 kPa
335 K	0.00575 kPa
336 K	0.00575 kPa and 0.00617 kPa and 0.00562 kPa
337 K	0.00724 kPa
338 K	0.00741 kPa and 0.00794 kPa
340 K	0.00933 kPa and 0.00813 kPa
343 K	0.01259 kPa
344 K	0.01288 kPa
345 K	0.01479 kPa
348 K	0.0195 kPa
351 K	0.02512 kPa
